Some test systems named below: OVCAR-8 ovarian; KM12 colon; UACC-62 melanoma; OVCAR-4 ovarian; OVCAR-5 ovarian; HL-60(TB) leukemia; SN12C renal; LOX IMVI melanoma; SF-268 CNS; T-47D breast; NCI/ADR-RES ovarian; IGROV1 ovarian; OVCAR-3 ovarian.
What all share (test): NCI-60 cell line screen, 48 h

SMILES strings stand for the structures.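 These data come from cells grown in 96-well plates and exposed to compound for 48 hours at five concentrations. GI50 = concentration required for 50% inhibition of growth. TGI marks complete inhibition of growth.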

Take `O=NNc1cnccn1`: the TGI with OVCAR-8 ovarian is more than 1250 µM; with KM12 colon, more than 1250 µM; in the test on UACC-62 melanoma, more than 1220 µM; in the test with OVCAR-4 ovarian it was more than 1250 µM; in the test with OVCAR-5 ovarian, more than 1250 µM; in the test with HL-60(TB) leukemia it was more than 852 µM. The TGI in the test on SN12C renal, in the test on LOX IMVI melanoma, in the test on SF-268 CNS, with T-47D breast, in the test on NCI/ADR-RES ovarian and in the test with IGROV1 ovarian was more than 1250 µM throughout. The molecule further came in with a TGI in the test on OVCAR-3 ovarian of more than 1250 µM.
Turning to `CC(=O)O[C@H]1[C@@H](OC2CCCC2(c2ccccc2)c2ccccc2)O[N+]([O-])=C[C@@]12COCc1cc3c(cc12)OCO3` (stereo partly specified), the TGI was more than 100 µM with OVCAR-8 ovarian; 11.3 µM in the test with KM12 colon; 25.9 µM with UACC-62 melanoma; 15.1 µM in the test on OVCAR-4 ovarian; more than 51.5 µM in the test with OVCAR-5 ovarian; more than 100 µM in the test on HL-60(TB) leukemia. Also, the TGI is more than 39.6 µM in the test with SN12C renal; more than 26.6 µM in the test with LOX IMVI melanoma; 14.4 µM in the test on SF-268 CNS; more than 31.2 µM in the test on T-47D breast; 14.9 µM in the test with NCI/ADR-RES ovarian; 22.2 µM with IGROV1 ovarian. For the same molecule, in the test with OVCAR-3 ovarian, the TGI came to 4.71 µM.
`CC(=O)O[C@H]1CC[C@H]2[C@@H]3CCC4=C(C(=O)C=CC4(C)OC(C)=O)[C@H]3CC[C@]12C` (stereo partly specified): the TGI is more than 100 µM in the test with OVCAR-8 ovarian; more than 100 µM in the test on KM12 colon; 74.5 µM in the test on UACC-62 melanoma; more than 100 µM in the test on OVCAR-4 ovarian; more than 100 µM with OVCAR-5 ovarian; 97.1 µM in the test on HL-60(TB) leukemia. In addition, the TGI in the test on SN12C renal, in the test with LOX IMVI melanoma, in the test with SF-268 CNS, in the test with T-47D breast, with NCI/ADR-RES ovarian and in the test on IGROV1 ovarian was more than 100 µM in each case. The TGI in the test on OVCAR-3 ovarian was more than 100 µM.
On to `CC(=O)O[C@H]1[C@H](OC(C)=O)[C@@H](CN=[N+]=[N-])OCO[C@@H]1CN=[N+]=[N-]`, for which the TGI in the test with OVCAR-8 ovarian, in the test on KM12 colon, with UACC-62 melanoma, in the test with OVCAR-4 ovarian, with OVCAR-5 ovarian and with HL-60(TB) leukemia was more than 100 µM in each case. The TGI with SN12C renal, with LOX IMVI melanoma, in the test on SF-268 CNS, in the test on T-47D breast, with NCI/ADR-RES ovarian and with IGROV1 ovarian was more than 100 µM in each case.
In the case of `COc1cc(CNC(=O)[C@H](Cc2ccc(O)cn2)NC(C)=O)cc(OC)c1`, the TGI in the test with KM12 colon, in the test on UACC-62 melanoma, in the test on OVCAR-4 ovarian, with OVCAR-5 ovarian, in the test on HL-60(TB) leukemia and in the test on SN12C renal was more than 100 µM each time. Further, the TGI with LOX IMVI melanoma, with SF-268 CNS, in the test on T-47D breast, in the test with NCI/ADR-RES ovarian, with IGROV1 ovarian and with OVCAR-3 ovarian was more than 100 µM throughout.
Regarding `NC1=NN(c2ccccc2)C2(c3ccncc3C(=O)O)C1C(N)=NN2c1ccccc1` (stereo unspecified), the TGI with OVCAR-8 ovarian, in the test on KM12 colon, with UACC-62 melanoma, with OVCAR-4 ovarian, with OVCAR-5 ovarian and with HL-60(TB) leukemia was more than 100 µM each time. Also, the TGI with SN12C renal, in the test with LOX IMVI melanoma, in the test with SF-268 CNS, in the test with T-47D breast, in the test on NCI/ADR-RES ovarian and in the test with IGROV1 ovarian was more than 100 µM throughout. Further, in the test with OVCAR-3 ovarian, the TGI is more than 100 µM.
In the case of `O=c1oc2cc(O)ccc2cc1-c1nc2ccccc2s1`, the TGI was more than 100 µM with OVCAR-8 ovarian; more than 100 µM in the test on KM12 colon; 41.7 µM in the test with UACC-62 melanoma; more than 100 µM in the test with OVCAR-4 ovarian; more than 100 µM in the test on OVCAR-5 ovarian; 55.6 µM with HL-60(TB) leukemia. In addition, the TGI in the test on SN12C renal was 49 µM; in the test with LOX IMVI melanoma, 90.2 µM; in the test with T-47D breast, 95.7 µM; with NCI/ADR-RES ovarian, 44.7 µM; in the test with IGROV1 ovarian it was more than 100 µM; in the test with OVCAR-3 ovarian, 45.6 µM.
As for `COc1cc(/C=C/c2sc3ccccc3[n+]2C)ccc1N(C)C`, the GI50 in the test with KM12 colon was 10.1 µM; in the test with UACC-62 melanoma, 10.4 µM; with HL-60(TB) leukemia, 1.75 µM; in the test on T-47D breast, 1.36 µM; in the test on NCI/ADR-RES ovarian, more than 100 µM; with IGROV1 ovarian, 9.14 µM. Besides, the GI50 in the test with OVCAR-3 ovarian was 3.15 µM. For the same molecule, the TGI is 21.7 µM in the test on KM12 colon; 22.4 µM with UACC-62 melanoma; 40.1 µM in the test on OVCAR-4 ovarian; 40.5 µM with OVCAR-5 ovarian; 3.88 µM in the test on HL-60(TB) leukemia; 25.5 µM in the test on SN12C renal. Also, the TGI with LOX IMVI melanoma was 31.9 µM; in the test with SF-268 CNS, 33.6 µM; in the test on T-47D breast it was 10.8 µM; with NCI/ADR-RES ovarian, more than 100 µM; with IGROV1 ovarian, 22 µM; in the test on OVCAR-3 ovarian, 13 µM.
As to `O=c1c[n+](-c2ccccc2)[nH]o1`, the TGI with KM12 colon, in the test with UACC-62 melanoma, with OVCAR-4 ovarian, in the test with OVCAR-5 ovarian, with HL-60(TB) leukemia and in the test on SN12C renal was more than 100 µM each time. In addition, the TGI with LOX IMVI melanoma, in the test on SF-268 CNS, in the test with T-47D breast, in the test with NCI/ADR-RES ovarian, in the test on IGROV1 ovarian and in the test with OVCAR-3 ovarian was more than 100 µM throughout.
For `CCN(CC)c1nc(N(C)C)c2ccc(OC)cc2n1`, the TGI was more than 100 µM in the test with OVCAR-8 ovarian; 48.2 µM in the test on KM12 colon; 24.8 µM with UACC-62 melanoma; more than 100 µM in the test with OVCAR-4 ovarian; more than 100 µM with OVCAR-5 ovarian; 17.2 µM in the test with HL-60(TB) leukemia. The TGI is 48.7 µM in the test with SN12C renal; 42.3 µM with LOX IMVI melanoma; more than 100 µM in the test on SF-268 CNS; 73.6 µM with T-47D breast; 69.1 µM in the test on NCI/ADR-RES ovarian; more than 100 µM in the test with IGROV1 ovarian.

The record behind these values is PubChem BioAssay (NCI).
